Assay results: patent publication US20100240746A1, “STEREOISOMERS OF TRICYCLODECAN-9-YL-XANTHOGENATE” (LUMAVITA AG, priority 2007, published 2010)
Values after ≈ are worked out from the molar mass of the structure shown. “Also recorded” adds a separate entry of the source.

Assays:
[1] = system: bovine papilloma virus type I (BPV-1)-transformed HEF (HEF-BPV); experiment: Inhibition of bovine papilloma virus, BPV-infected hamster embryo fibroblasts (HEF) cell proliferation assay; type: cell-based; conditions: HEF-BPV, 72 hr, 37° C., pH 6.8
Method: Briefly, hamster embryo fibroblasts and bovine papilloma virus type I (BPV-1)-transformed HEF (HEF-BPV) were grown in Eagle's basal medium. […] and HEF cells were seeded in 96-well plates at a density of 0.5×10^6 cells per plate in DMEM cell culture medium containing 10% fetal calf serum at pH 6.8. The plates were then incubated in the presence of 5% CO2 in 100% humidity at 37° C. After 6 hr, the cell culture medium in the plates was exchanged with fresh DMEM cell culture medium containing test compounds at a series of concentrations. The plates were incubated at 37° C. for additional 72 hr. Cells in the plates were then washed with PBS, fixed with 3% formaldehyde solution containing 0.9% NaCl for 1 min, washed by water for 10 sec, and dried overnight. For detection, the plates were stained with crystal violet solution for 5 min at room temperature, washed 5 times with water, and dried at room temperature overnight. After adding ethanol/acetic acid (99:1, v/v, […]) to each well, the plates were measured at 595 nm using an ELISA reader.

[2] = system: HPV-31-infected CIN612 9E keratinocytes; experiment: Short-term study, effect on cell proliferation of HPV-31-infected keratinocytes; type: cell-based, human papilloma virus; conditions: Human papillomavirus, Keratinocyte; 72 hrs, 37° C.; 50% of uninhibited growth
Method: The inhibitory activities of optically active (−)-enantiomer 1A against human papilloma virus were evaluated using HPV-31-infected CIN612 9E keratinocytes (Meyers et al., Science 1992, 257, 971-973).
Effect on cell proliferation. HPV-31 infected cells were seeded in 96-well plates containing 1×10^6 mitomycin C treated 3T3 cells (1×10^4 cells/well), at a density of 0.5×10^6 cells per plate (0.5×10^4 cells/well) in E medium. After the plates were incubated in a CO2 incubator under 5% CO2 at 37° C. in 100% humidity for six hrs, the cell culture medium was removed and fresh E medium containing 0.85 g/L NaHCO3 and a test compound at a series of concentrations (0, 0.5, 1, 2, 4, 8, 16, 32, 64, and 128 μg/mL), or positive control (interferon γ at 200 IU/mL) was added. […] After the plates were dried on blotting paper upside down overnight, 0.1 mL of ethanol/acetic acid (99:1) was added to each well and optical density at 595 nm was determined in an ELISA reader.
Dose response curves were established by plotting growth against concentrations of the test compound or control. ICso values were determined from the dose response curves from crossing points of the dose response curves with a line parallel to the x-axis corresponding to 50% of uninhibited growth.

actin specific RNA = experiment: Short-term study, effect on control RNA expression; type: cell-based; conditions: 0-32 μg/mL, 72 hrs
Method: Effect on HPV-31 specific DNA and RNA. HPV-31 infected cells (3×10^6) were dispensed into 14.5 cm dishes containing fresh E culture medium and 1×10^6 mitomycin C-treated J2 3T3 fibroblast feeders. After 6 hrs, fresh medium containing 0.85 g/L NaHCO3 and a test compound at a series of concentrations (0, 0.5, 1, 2, 4, 8, 16, and 32 μg/mL) were added. All samples were tested in duplicates at each concentration. After incubation at 37° C. for 72 hrs, the feeder cells were removed with 4 mM EDTA, and DNA and RNA was then isolated. The isolated DNA and RNA were analyzed in Southern and Northern Blot gels for HPV-31 specific sequences. Human A431 epithelial cancer cells were used as HPV-uninfected negative control. X-ray films were scanned and optical densities of HPV-31 specific DNA and major mRNA species were integrated.
Dose response curves were established by plotting integrated values against the concentrations of the test compound.

[3] = system: HPV-31-infected CIN612 9E keratinocytes; experiment: Long-term study, effect on cell proliferation of CIN612 9E cells over 9 passages; type: cell-based, human papilloma virus
Method: HPV-31 infected cells (3×10^6) were dispensed into 14.5 cm dishes containing fresh E medium and 1×10^6 cells of mitomycin C-treated 3T3 fibroblast feeders. The dishes were incubated in a CO2 incubator under 5% CO2 at 37° C. in 100% humidity. Human A431 epithelial cancer cells were used as HPV-uninfected negative controls. After 6 hr incubation, the cell culture medium was removed and fresh E medium containing 0.85 g/L NaHCO3 and a test compound at concentrations of 10 and 3.3 μg/mL, or control (interferon γ at 200 IU/mL) were added. For each concentration, 4 dishes were prepared. The dishes were incubated at 37° C. in a CO2 incubator. The culture medium was replaced to new E medium containing each concentration of the test compound or control in every 72 hrs. After seven days, or when untreated cells became confluent, one dish of each group was harvested for DNA/RNA extraction, followed by Southern/Northern Blot analysis; and one dish was trypsinized, cell number were determined and cells were seeded in three new dishes, treated and cultured as described above. This procedure was repeated for 9 passages. During these passages, morphology of cells and cell density were monitored.
Effect on cell proliferation. Cell numbers in the dishes harvested were determined in a Neubauer hematocytometer. The multiplication factor was determined at every step of passage. The cell number of each culture at the end of the passage was divided by the number of seeded cells at the start of each passage. The end point was reached when keratinocytes treated with a test compound stopped growing. Stop of cell growth was defined as a multiplication factor of no greater than 1.

Compound: S=C(S)OC1CC2CC1C1CCCC21 (single isomer, unassigned; (-)) [(−)-Enantiomer 1A, (−)-O-exo/C-exo-tricyclo[5.2.1.0^2,6]-dec-9-yl-xanthic acid]
- IC50 [1]: 11.07 ± 0.18 µg/mL (≈ 48.5 µM)
- EC50 [2]: 16 µg/mL (≈ 70.1 µM)
- expression of the control RNA (actin specific RNA) (actin specific RNA): only affected at the highest concentration of 32 μg/mL
- growth ([3]; 3.3 μg/mL): reduction of the growth rate; also recorded: the cells almost stopped growing after 9 passages
- cell proliferation ([3]; 10 μg/mL): significant reduction of cell proliferation
- multiplication factor ([3]; 10 μg/mL, first five passages): 2-2.5
